Test results as given in the Kinase Knowledgebase extract (Sharma et al. 2016).

Target: EGFR (human) (UniProt P00533)
Conditions: a431

Chain of EGFR (human) (P00533 whole entry, looked up): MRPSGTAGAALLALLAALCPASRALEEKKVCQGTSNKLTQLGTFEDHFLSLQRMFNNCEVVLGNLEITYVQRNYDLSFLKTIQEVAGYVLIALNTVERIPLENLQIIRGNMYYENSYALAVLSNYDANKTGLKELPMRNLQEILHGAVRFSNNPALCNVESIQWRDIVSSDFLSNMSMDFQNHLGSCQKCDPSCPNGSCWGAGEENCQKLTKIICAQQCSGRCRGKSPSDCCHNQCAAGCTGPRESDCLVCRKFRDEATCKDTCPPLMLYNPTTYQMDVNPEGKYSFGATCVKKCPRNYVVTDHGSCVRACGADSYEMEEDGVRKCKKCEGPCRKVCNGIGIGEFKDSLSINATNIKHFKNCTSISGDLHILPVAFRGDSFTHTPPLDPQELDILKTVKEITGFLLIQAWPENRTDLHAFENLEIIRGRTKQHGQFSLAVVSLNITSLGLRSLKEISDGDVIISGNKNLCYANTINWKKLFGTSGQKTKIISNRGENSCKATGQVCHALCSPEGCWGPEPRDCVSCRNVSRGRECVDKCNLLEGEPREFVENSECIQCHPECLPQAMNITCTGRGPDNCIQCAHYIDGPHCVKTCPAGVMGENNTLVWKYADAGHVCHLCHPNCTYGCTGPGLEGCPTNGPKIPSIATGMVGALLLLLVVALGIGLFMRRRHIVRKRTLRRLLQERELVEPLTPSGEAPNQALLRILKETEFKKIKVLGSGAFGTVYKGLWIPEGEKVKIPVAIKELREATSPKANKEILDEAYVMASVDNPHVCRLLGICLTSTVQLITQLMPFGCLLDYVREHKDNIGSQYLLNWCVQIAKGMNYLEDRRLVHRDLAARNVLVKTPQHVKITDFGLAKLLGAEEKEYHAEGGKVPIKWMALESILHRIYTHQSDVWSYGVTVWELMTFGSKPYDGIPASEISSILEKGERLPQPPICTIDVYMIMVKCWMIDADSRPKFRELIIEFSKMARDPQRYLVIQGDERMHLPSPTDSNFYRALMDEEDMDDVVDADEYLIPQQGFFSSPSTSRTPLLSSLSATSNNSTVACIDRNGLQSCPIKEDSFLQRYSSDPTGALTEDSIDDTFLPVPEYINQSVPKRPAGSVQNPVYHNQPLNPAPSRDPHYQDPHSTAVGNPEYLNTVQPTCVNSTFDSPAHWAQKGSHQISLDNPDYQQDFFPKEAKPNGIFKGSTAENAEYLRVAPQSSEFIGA

| SMILES | IC50 [µM] |
| --- | --- |
| COc1ccc(OC)c(/C(C)=C/c2coc3nc(N)nc(N)c23)c1 | > 50 |
| C/C(=C/c1coc2nc(N)nc(N)c12)c1cc(Cl)ccc1Cl | > 50 |
| C/C(=C\c1coc2nc(N)nc(N)c12)c1ccc2c(c1)Cc1ccccc1-2 | > 50 |
| COc1cc(/C(C)=C/c2coc3nc(N)nc(N)c23)cc(OC)c1OC.COc1cc(/C(C)=C\c2coc3nc(N)nc(N)c23)cc(OC)c1OC | > 50 |
| C/C(=C/c1coc2nc(N)nc(N)c12)c1ccc2ccccc2c1.C/C(=C\c1coc2nc(N)nc(N)c12)c1ccc2ccccc2c1 | > 50 |
| COc1ccccc1/C(C)=C/c1coc2nc(N)nc(N)c12 | > 50 |
| C/C(=C\c1coc2nc(N)nc(N)c12)c1ccc(Cl)cc1Cl | > 50 |
| C/C(=C\c1coc2nc(N)nc(N)c12)c1cc(Cl)ccc1Cl | > 50 |
| C/C(=C/c1coc2nc(N)nc(N)c12)c1ccc(Cl)c(Cl)c1Cl.C/C(=C\c1coc2nc(N)nc(N)c12)c1ccc(Cl)c(Cl)c1Cl | > 50 |
| C/C(=C/c1coc2nc(N)nc(N)c12)c1ccc(-c2ccccc2)cc1.C/C(=C\c1coc2nc(N)nc(N)c12)c1ccc(-c2ccccc2)cc1 | > 50 |
| C/C(=C\c1coc2nc(N)nc(N)c12)c1cccc(Cl)c1 | > 50 |
| C/C(=C/c1coc2nc(N)nc(N)c12)c1ccc(Cl)c(Cl)c1.C/C(=C\c1coc2nc(N)nc(N)c12)c1ccc(Cl)c(Cl)c1 | > 50 |
| C/C(=C\c1coc2nc(N)nc(N)c12)c1ccc(Cl)c(Cl)c1Cl | > 50 |
| C/C(=C/c1coc2nc(N)nc(N)c12)c1ccc(Cl)cc1.C/C(=C\c1coc2nc(N)nc(N)c12)c1ccc(Cl)cc1 | > 50 |
